Data from ChEMBL document CHEMBL1649567, “Characterization of the plasmid-borne quinolone resistance gene qnrB19 in Salmonella enterica serovar Typhimurium” (2009).
Converted amounts (≈) assume the structure as drawn.

Columns and labels:
Salmonella typhimurium [1] = assay: Antimicrobial activity against Salmonella enterica serovar Typhimurium STYM61/9 expressing qnrB19 gene variant carried by IncL/M-like plasmid by Etest; type: functional, Salmonella enterica subsp. enterica serovar Typhimurium
Salmonella typhimurium [2] = assay: Antimicrobial activity against Salmonella enterica serovar Typhimurium transconjugant p61/9T expressing qnrB19 gene variant carried by IncL/M-like plasmid by Etest; type: functional, Salmonella enterica subsp. enterica serovar Typhimurium
Escherichia coli = assay: Antimicrobial activity against Escherichia coli CSH26RifR receiving qnrB19 gene variant carried by IncL/M-like plasmid from Salmonella enterica serovar Typhimurium STYM61/9 by Etest; type: functional

| Compound | MIC (Salmonella typhimurium [1]) [µg/mL] | MIC (Salmonella typhimurium [2]) [µg/mL] | MIC (Escherichia coli) [µg/mL] |
| --- | --- | --- | --- |
| CCn1cc(C(=O)O)c(=O)c2ccc(C)nc21 [NALIDIXIC ACID] | 12 (≈ 51.7 µM) | 16 (≈ 68.9 µM) | 4 (≈ 17.2 µM) |
| O=C(O)c1cn(C2CC2)c2cc(N3CCNCC3)c(F)cc2c1=O [CIPROFLOXACIN] | 0.38 (≈ 1.15 µM) | 0.19 (≈ 0.573 µM) | – |
| CC1COc2c(N3CCN(C)CC3)c(F)cc3c(=O)c(C(=O)O)cn1c23 (centres undefined) [OFLOXACIN] | 0.75 (≈ 2.08 µM) | 0.75 (≈ 2.08 µM) | 0.064 (≈ 0.177 µM) |
| COc1c(N2C[C@@H]3CCCN[C@@H]3C2)c(F)cc2c(=O)c(C(=O)O)cn(C3CC3)c12 [MOXIFLOXACIN] | 0.5 (≈ 1.25 µM) | 0.5 (≈ 1.25 µM) | 0.047 (≈ 0.117 µM) |
| CCn1cc(C(=O)O)c(=O)c2cc(F)c(N3CCNCC3)cc21 [NORFLOXACIN] | 1 (≈ 3.13 µM) | 0.5 (≈ 1.57 µM) | 0.064 (≈ 0.2 µM) |
